Experimental data reported in publication PMC12470121, “Exploring the Novel Pancreatic Lipase-Inhibitory Peptides in Chlorella pyrenoidosa: Preparation, Purification, Identification, and Molecular Docking” (Foods, 2025).
Each block holds one molecule with its values, some of them ahead of it.

Tests used:
[1] = target: T1, pancreatic lipase (PL) (Sus scrofa, UniProt P00591); test: PL inhibition assay (pNPP substrate); format: biochemical, porcine; conditions: CPPH-I at 8 mg/mL vs orlistat at 8 µg/mL; p > 0.05
T1 construct: Pancreatic lipase (derived from porcine pancreas); purchased Yuanye Biotech (Shanghai, China); host or cells: porcine pancreas
T1 sequence (P00591 1-450): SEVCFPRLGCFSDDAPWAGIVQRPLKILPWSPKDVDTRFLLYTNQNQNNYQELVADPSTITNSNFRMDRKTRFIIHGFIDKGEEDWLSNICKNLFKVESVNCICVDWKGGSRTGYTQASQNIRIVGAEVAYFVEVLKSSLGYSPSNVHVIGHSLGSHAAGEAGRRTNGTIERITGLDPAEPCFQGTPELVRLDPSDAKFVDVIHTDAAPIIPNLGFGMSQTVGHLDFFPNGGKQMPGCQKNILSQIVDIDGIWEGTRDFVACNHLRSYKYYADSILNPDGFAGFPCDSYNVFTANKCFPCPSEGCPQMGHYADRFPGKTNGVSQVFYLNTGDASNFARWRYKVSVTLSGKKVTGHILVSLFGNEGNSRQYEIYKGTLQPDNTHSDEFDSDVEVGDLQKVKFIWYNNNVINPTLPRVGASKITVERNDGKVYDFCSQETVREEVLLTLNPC
Method: To evaluate the inhibitory activity of the peptide fractions against PL, we conducted experiments according to Zhang et al.. Briefly, a mixture containing 120 μL of PL (10 mg/mL), 40 μL of peptide sample, and 80 μL of 50 mmol/L Tris-HCl buffer (pH 8.0) was incubated at 37 °C for 10 min. Then, 160 μL of 0.8 mmol/L p-nitrophenyl palmitate (pNPP) dissolved in dimethyl sulfoxide was added to initiate the reaction. After incubation at 37 °C for 20 min, the reaction was terminated by heating in a water bath at 100 °C for 5 min, followed by centrifugation to remove precipitated material. The absorbance of 200 μL of the supernatant was measured at 405 nm using a microplate reader (Infinite® 200 PRO, Tecan, Männedorf, Switzerland). For the control group, the peptide sample was replaced with an equal volume of buffer; in the blank group, the PL solution was replaced with buffer. Finally, the activity of PL was calculated using Equation (1). (1) PL activity%=[1−B−b/(A−a)]×100% where A denotes the absorbance of the control group, B the absorbance of the sample group, a the absorbance of the control blank group, and b the absorbance of the sample blank group.

[2] = tested on: pancreatic lipase (PL); conditions: cited from earlier work
Description: Their mechanisms of action are closely linked to a high hydrophobic amino acid content. […] Among them, the pancreatic lipase activity of VWTP was better. […] (36.28% pan ...

[3] = tested on: intracellular triglyceride accumulation; conditions: ref [15]; cited from earlier work
Description: Their mechanisms of action are closely linked to a high hydrophobic amino acid content.

[4] = target: T2, Pancreatic lipase (derived from porcine pancreas) (porcine) (UniProt P00591)
T2 sequence: T1 sequence (P00591 1-450)

Molecule: CCCCCCCCCCC[C@@H](C[C@@H]1OC(=O)[C@H]1CCCCCC)OC(=O)[C@H](CC(C)C)NC=O [orlistat]
PL-I activity compared with orlistat [1]: no significant difference between CPPH-I and orlistat

Molecule: LLVVYPWTQR [peptide isolated from Chlorella (literature)]
Pancreatic lipase inhibition (in words) ([2]; isolated from Chlorella, ref [15]): demonstrated efficacy in inhibiting pancreatic lipase | Reduction of intracellular triglyceride accumulation (in words) [3]: reducing intracellular triglyceride accumulation

Molecule: FYLGYCDY [peptide derived from rice bran fat extract (literature)]
IC50 ([2]; peptide from rice bran, ref [13], read-out: Pancreatic lipase inhibition IC50): 470 ± 20 nM

Molecule: SPFWNINAH [oat bran-derived peptide (literature)]
Pancreatic lipase-inhibitory activity (in words) ([2]; oat bran-derived, ref [14]): activity indicates its promise as an anti-obesity drug

PL inhibition rate at 2 mg/mL peptide (pNPP hydrolysis, absorbance at 405 nm) [4]: 4.49%
Molecule: IPYPL

PL inhibition rate at 2 mg/mL peptide (pNPP hydrolysis, absorbance at 405 nm) [4]: 7.64%
Molecule: IVGPF

PL inhibition rate at 2 mg/mL peptide (pNPP hydrolysis, absorbance at 405 nm) [4]: 11.5%
Molecule: FLSQPF
